Results on five compounds are retold here after patent publication US20250381206A1, “INVARIANT NATURAL KILLER T-CELL ACTIVATORS” (Deciduous Therapeutics, Inc., priority 2022, published 2025).

In one assay the test system is C57BL/6J mice. Briefly: In vivo IFNγ activation and iNKT cell expansion in C57BL/6J mice. More on the design: species or system mouse. To be noted: 2 μg I.P.; for Naïve Mouse In Vivo IFNγ: average serum IFNγ by ELISA, twenty hours post-injection, eight weeks old C57BL/6J mice; for Naïve Mouse In Vivo CD3 + iNKT + cells (Fold increase over veh control): iNKT cells within splenocytes by flow cytometry, four days post-injection, C57BL/6J mice. As to the method: Any of the compounds provided herein may be used in this example, including the exemplary compounds of Tables 1 and 2. To determine the expansion induced by the compounds described herein, test compounds were injected into C57BL/6J mice. Serum IFNγ levels and the expansion of iNKT cells within splenocytes was measured 4 days post-IP injection.
Eight weeks old C57BL/6J mice were injected (I.P.) with 2 μg of test compounds. The test compounds were either dissolved in DMSO at a 5 mg/mL stock solution, or formulated into liposomes through thin-film rehydration, then extrusion through 200 nm filters. Liposome-based formulations were constructed using soy phosphatidylcholine, cholesterol, and test compound in a 2:1:0.15 ratio. Twenty hours post-injection, blood was collected from the tail to measure the level of serum IFNγ using an ELISA kit from Biolegend. Four days post-injection, the mice were sacrificed and the splenocytes were isolated. The percentage of iNKT cells within the spleens was measured using flow cytometry, selecting for live cells and mouse CD1d-α-GalCer tetramer+ cells.
In response to injection of several exemplary compounds, the average serum IFNγ collected and fold change of cells are shown in Table B4 below.
A general note: ELISA stands for enzyme-linked immunosorbent assay.

Another assay deals with T1, human iTCR (Homo sapiens, UniProt P15813).
T1 sequence (P15813 1-335): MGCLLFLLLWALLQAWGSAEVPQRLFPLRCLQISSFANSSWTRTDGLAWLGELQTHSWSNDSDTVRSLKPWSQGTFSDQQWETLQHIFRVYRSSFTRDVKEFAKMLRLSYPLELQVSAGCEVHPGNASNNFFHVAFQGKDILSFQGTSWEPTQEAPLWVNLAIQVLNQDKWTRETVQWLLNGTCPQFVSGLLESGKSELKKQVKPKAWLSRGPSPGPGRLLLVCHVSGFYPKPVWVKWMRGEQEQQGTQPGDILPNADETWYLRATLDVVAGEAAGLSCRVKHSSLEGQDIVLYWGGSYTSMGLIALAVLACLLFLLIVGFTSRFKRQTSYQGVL
Briefly: In vitro activation of human iTCR through a Jurkat reporter cell line (JiNKT, GFP under NFKB promoter) co-cultured with compound-loaded BWSTIM cells. It is filed as cell-based. To be noted: percentage of JiNKT cells expressing high levels of GFP by flow cytometry; BWSTIM loaded 4 hours, co-cultured 18 to 24 hours. From the text:
To determine the human iTCR activation potential induced by the compounds described herein, a Jurkat cell line (JiNKT) was transfected with the human iTCR, and GFP under the NFKB promoter (cell line licensed from the Medical University of Vienna). A BWS147 cell line (BWSTIM) was also transfected with CD80 and CD1d to act as the antigen-presenting cell.
Any of the compounds provided herein may be used in this example, including the exemplary compounds of Tables 1 and 2. Test compounds were dissolved in DMSO at a 5 mg/mL stock solution. BWSTIM cells were loaded with test compounds at varying concentrations for 4 hours at 37° C. at a concentration of 20k cells/well in 200 μL of media in a u-bottom 96 well dish. BWSTIM cells were washed 2× with media, then incubated with JiNKT cells at a concentration of 80k cells/well in a u-bottom 96 well dish. Cells were co-cultured for 18 to 24 hours. The percentage of cells expressing high levels of GFP was measured through flow cytometry (after gating out the mCD45+ BWSTIM cells).
For orientation: In flow cytometry, cells or beads pass a laser one at a time.

Broadly, the EC50 is the concentration needed to bring the measured effect to its halfway point. Take `CCCCCCCCCCCCCCC[C@@H](O)[C@H](CO[C@H]1O[C@H](CO)[C@H](O)[C@H](O)[C@H]1O)NC(=O)CCCCCCCCCCCCCCCCCCCCCCCC12CC(F)(C1)C2` [Compound I-2, 24-(3-fluorobicyclo[1.1.1]pentan-1-yl)-N-((2S,3R)-3-hydroxy-1-(((2S,3R,4S,5R,6R)-3,4,5-trihydroxy-6-(hydroxymethyl)tetrahydro-2H-pyran-2-yl)oxy)octadecan-2-yl)tetracosanamide]: in the assay on C57BL/6J mice, the “Naïve Mouse In Vivo IFNγ” value came out at 8128 ± 1209 pg/mL and the “Naïve Mouse In Vivo CD3 + iNKT + cells (Fold increase over veh control)” value is 2.21 ± 0.38 Fold increase over veh control. The EC50 on human iTCR is 1780 nM.
`CCCCCCCCCCCCCC[C@@H](O)[C@@H](O)[C@H](CO[C@H]1O[C@H](COC(=O)CCc2ccccc2)[C@H](O)[C@H](O)[C@H]1O)NC(=O)CCCCCCCCCCCCCCCCCCCCCCCC12CC(F)(C1)C2` [Compound I-3, ((2R,3R,4S,5R,6S)-6-(((2S,3S,4R)-2-(24-(3-fluorobicyclo[1.1.1]pentan-1-yl)tetracosanamido)-3,4-dihydroxyoctadecyl)oxy)-3,4,5-trihydroxytetrahydro-2H-pyran-2-yl)methyl 3-phenylpropanoate]: in the assay with C57BL/6J mice, the “Naïve Mouse In Vivo IFNγ” value worked out at 8506 ± 790 pg/mL and the “Naïve Mouse In Vivo CD3 + iNKT + cells (Fold increase over veh control)” value is listed as 1.12 ± 0.19 Fold increase over veh control. For the same compound, at human iTCR, the EC50 was 908 nM.
In the case of `CCCCCCCCCCCCCCC[C@@H](O)[C@H](CC[C@H]1O[C@H](COC(=O)CCc2ccccc2)[C@H](O)[C@H](O)[C@H]1O)NC(=O)CCCCCCCCCCCCCCCCCCCCCCCC12CC(F)(C1)C2` [Compound I-4, ((2R,3R,4R,5R,6R)-6-((3S,4R)-3-(24-(3-fluorobicyclo[1.1.1]pentan-1-yl)tetracosanamido)-4-hydroxynonadecyl)-3,4,5-trihydroxytetrahydro-2H-pyran-2-yl)methyl 3-phenylpropanoate], in the assay on C57BL/6J mice, the “Naïve Mouse In Vivo IFNγ” value was 28208 ± 4723 pg/mL and the “Naïve Mouse In Vivo CD3 + iNKT + cells (Fold increase over veh control)” value is on record as 4.09 ± 0.78 Fold increase over veh control. In addition, the EC50 on human iTCR was 621 nM.
In the same order, the values of `CCCCCCCCCCCCCCC[C@@H](O)[C@H](CO[C@H]1O[C@H](COC(=O)CCc2ccccc2)[C@H](O)[C@H](O)[C@H]1O)NC(=O)CCCCCCCCCCCCCCCCCCCCCCCC1CCS(=O)(=O)CC1` [Compound I-6, ((2R,3R,4S,5R,6S)-6-(((2S,3R)-2-(24-(1,1-dioxidotetrahydro-2H-thiopyran-4-yl)tetracosanamido)-3-hydroxyoctadecyl)oxy)-3,4,5-trihydroxytetrahydro-2H-pyran-2-yl)methyl 3-phenylpropanoate] are 43930 ± 43396 pg/mL, 1.89 ± 0.44 Fold increase over veh control and 797 nM.
As to `CCCCCCCCCCCCCC[C@@H](O)[C@@H](O)[C@H](CC[C@H]1O[C@H](CO)[C@H](O)[C@H](O)[C@H]1O)NC(=O)CCCCCCCCCCCCCCCCCCCCCCCC12CC(F)(C1)C2` [Compound I-7, N-((3S,4S,5R)-4,5-dihydroxy-1-((2R,3R,4R,5R,6R)-3,4,5-trihydroxy-6-(hydroxymethyl)tetrahydro-2H-pyran-2-yl)nonadecan-3-yl)-24-(3-fluorobicyclo[1.1.1]pentan-1-yl)tetracosanamide], on human iTCR, the EC50 was 1180 nM.
